# Experimental data from US10039839B2, “Compounds that participate in cooperative binding and uses thereof” (Warp Drive Bio, Inc., priority 2015, dated 2018).
# Square brackets hold non-standard residues; d marks the D form. Peptide text beside a SMILES is read from it. MeBmt = C/C=C/C[C@@H](C)[C@@H](O)[C@H](NC)C(=O)O; NMeL = CN[C@@H](CC(C)C)C(=O)O; NMeV = CN[C@H](C(=O)O)C(C)C; NMeA = CN[C@@H](C)C(=O)O; dNMeA = CN[C@H](C)C(=O)O; Abu = CC[C@H](N)C(=O)O; Sar = CNCC(=O)O
# Target: FKBP12 (Homo sapiens, UniProt P62942)
# Sequence (P62942 whole entry, species assumed): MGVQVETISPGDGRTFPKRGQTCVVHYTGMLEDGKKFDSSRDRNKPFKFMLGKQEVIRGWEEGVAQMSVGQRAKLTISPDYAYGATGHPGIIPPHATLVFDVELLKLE
# Assay: AlphaLISA: inhibition of binding of biotinylated FK506 to FLAG tagged FKBP12
# Parameters: made in house
# Settings: not given
# Protocol: This protocol utilizes Perkin Elmers AlphaLISA technology platform to detect FKBP binders by measuring the inhibition of binding of biotinylated FK506 to FLAG tagged FKBP12.
# Add 20 uL of 12.5 nM FKBP-FLAG working stock to each well of the 96-well plate. Add 1 uL of test compound (100% DMSO) to each well of the plate using the Janus MTD head and P20 tips (except control wells). Add 1 uL of DMSO to negative control wells and 1 uL of 50 uM FK506 solution to positive control wells. In the dark, add 20 uL of combined Donor/Acceptor beads to each well. Incubate in the dark for 30 minutes at room temperature. In the dark, add 10 uL of 5 nM biotinylated FK506 working stock to each well. Incubate in the dark for 60 minutes at room temperature. Protect plate from light until reading on Biotek Synergy2 Plate Reader; Alphalisa 96-well protocol (680 excitation/615 emission).
row,Structure (SMILES),IC50
1,CCC(/C=C(\C)C(O)CCC(C)/C=C/C(O)C(C)C1CCC(C)C(O)(C(=O)C(=O)N2CCCCC2C(=O)O)O1)C/C(C)=C/C1=CC(O)C(O)C=C1 (stereo not drawn) [F14],1800 nM
2,CCC(/C=C(\C)C(O)CCC(C)/C=C/C(O)C(C)C1CCC(C)C(O)(C(=O)C(=O)N2CCCCC2C(=O)O)O1)C/C(C)=C/C1=CC(OC)C(O)C=C1 (stereo not drawn) [F15],1930 nM

# Same assay, conditions: read-out: Binding affinity to FKBP12 (by displacement of FK506)
row,IC50,Structure (SMILES)
1,0.21 nM,"CC[C@H](Cc1ccccc1)[C@@H]1CCCCCC(=O)[C@@H](C)[C@H](O)[C@@H](C)[C@@H]2CC[C@@H](C)[C@@](O)(O2)C(=O)C(=O)N2CCCC[C@H]2C(=O)O1 [F24, (S)-1-(2-((2R,3R,6S)-6-((2R,3R,4S,6E,9E,11R,12R)-12-benzyl-3,11-dihydroxy-4-methyl-5-oxotetradeca-6,9-dien-2-yl)-2-hydroxy-3-methyltetrahydro-2H-pyran-2-yl)-2-oxoacetyl)piperidine-2-carboxylic acid C-11 lactone]"

# System: HeLa-FKBP12 cells
# Assay: Biosensor cell permeability assay, FKBP binding compounds
# Assay type: cell-based
# Settings: 72 hrs
# Protocol: This protocol utilizes a modified FKBP or cyclophilin destabilizing mutant to determine the bioactivity of FKBP binding compounds or cyclophilin binding compounds in whole cell assay.
# Plate HeLa-FKBP12 cells (for FKBP binding compounds) or HeLa-Cyclophilin A cells (for cyclophilin binding compounds) and seed overnight at 5 k/well (approximately ˜18 hrs.). Using a multi-channel pipet, take out the old media and add ˜125 ul of new media with compounds. Compounds are diluted using DMEM without Phenol Red, 10% FBS, 1× Sodium Pyruvate, 1× Glutamax. Add 125 ul of media with compound per well. Cells are treated with compounds at concentration: 30, 10, 3.33, 1.11, 0.37, 0.12, 0.04 and 0.013 uM. Time points are taken at 72 hrs and plate read using plate reader with excitation/emission: 575/620.
# Cell binding/permeability is calculated in fold-change (Total RFU of treated samples/total RFU of DMSO treated samples or total RFU above background (Total RFU minus total RFU of DMSO treated samples).
row,IC50,Structure (SMILES)
1,< 1000 nM,CC[C@H](Cc1ccccc1)[C@@H]1/C=C/C/C=C/C[C@@H](C)[C@H](O)[C@@H](C)[C@@H]2CC[C@@H](C)C(=O)C(O)(O2)C(=O)N2CCC[C@H]2C(=O)O1 [F4]
2,< 1000 nM,CC[C@H](Cc1cccc(O)c1)[C@@H]1/C=C/C/C=C/C[C@@H](C)[C@H](O)[C@@H](C)[C@@H]2CC[C@@H](C)C(=O)C(O)(O2)C(=O)N2CCCC[C@H]2C(=O)O1 [F20]
3,< 1000 nM,CC[C@H](Cc1cccc(O)c1)[C@@H]1/C=C/C=C/CC[C@@H](C)[C@H](O)[C@@H](C)[C@@H]2CC[C@@H](C)[C@@](O)(O2)C(=O)C(=O)N2CCCC[C@H]2C(=O)O1 [F21]

# Continued, compound first:
row,Structure (SMILES),IC50
1,CCC(/C=C(\C)C(O)CCC(C)/C=C/C(O)C(C)C1CCC(C)C(O)(C(=O)C(=O)N2CCCCC2C(=O)O)O1)C/C(C)=C/C1=CC(O)C(O)C=C1 (stereo not drawn) [F14],> 1000 nM
2,CC[C@H](Cc1ccccc1)[C@@H]1/C=C/C=C/CC[C@@H](C)C(=O)[C@@H](C)[C@@H]2CC[C@@H](C)[C@@](O)(O2)C(=O)C(=O)N2CCCC[C@H]2C(=O)O1 [F22],> 1000 nM

# Target: T1, Cyclophilin A (Homo sapiens, UniProt P62937)
# T1 construct: made in house
# T1 sequence (P62937 whole entry, species assumed): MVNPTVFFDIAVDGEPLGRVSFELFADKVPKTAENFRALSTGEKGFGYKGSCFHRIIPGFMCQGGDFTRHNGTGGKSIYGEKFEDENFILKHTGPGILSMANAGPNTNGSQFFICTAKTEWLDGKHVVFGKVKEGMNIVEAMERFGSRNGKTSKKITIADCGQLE
# Assay: biochemical
# Assay type: binding
# Settings: not given
# Protocol: This protocol utilizes Perkin Elmers AlphaLISA technology platform to detect cyclosporine analogues by measuring the inhibition of binding of biotinylated Cyclosporin A to FLAG tagged Cyclophilin A.
# Add 20 uL of 6 nM Biotinylated CsA working stock to each well of the 96-well plate. Add 1 uL of test compound (100% DMSO) to each well of the plate using the Janus MTD head and P20 tips (except control wells). Add 1 uL of DMSO to negative control wells and 1 uL of 500 uM Cyclosporin A solution to positive control wells. In the dark, add 20 uL of combined Donor/Acceptor beads to each well. Incubate in the dark for 30 minutes at room temperature. […] Incubate in the dark for 60 minutes at room temperature.
row,% inhibition of CsA binding to Cyclophilin A,Structure (SMILES)
1,93.73%,C/C=C/C[C@@H](C)[C@@H](O)[C@H]1C(=O)N[C@@H](CC)C(=O)N(C)CC(=O)N(C)[C@H](C)C(=O)N[C@@H](CC(C)C)C(=O)N(C)[C@@H](C)C(=O)N[C@@H](C)C(=O)N[C@H](C)C(=O)N(C)[C@@H](CC(C)C)C(=O)N(C)[C@@H](CC(C)C)C(=O)N(C)[C@@H](C(C)C)C(=O)N1C [C11] (cyclo([MeBmt][Abu][Sar][dNMeA]L[NMeA]A[dA][NMeL][NMeL][NMeV]))
2,90.64%,C/C=C/C[C@@H](C)[C@@H](O)[C@H]1C(=O)N[C@@H](CC)C(=O)N(C)CC(=O)N(C)[C@@H](CC(C)C)C(=O)N[C@@H](CC(C)C)C(=O)N(C)[C@@H](C)C(=O)N[C@@H](C)C(=O)N[C@H](C)C(=O)N(C)[C@@H](CC(C)C)C(=O)N(C)[C@@H](CC(C)C)C(=O)N(C)[C@@H](C(C)C)C(=O)N1C [C14] (cyclo([MeBmt][Abu][Sar][NMeL]L[NMeA]A[dA][NMeL][NMeL][NMeV]))
3,97.88%,C/C=C/C[C@@H](C)[C@@H](O)[C@H]1C(=O)N[C@@H](CC)C(=O)N(C)CC(=O)N(C)[C@@H](C)C(=O)N[C@@H](C)C(=O)N(C)CC(=O)N[C@@H](C)C(=O)N[C@H](C)C(=O)N(C)[C@@H](CC(C)C)C(=O)N(C)[C@@H](CC(C)C)C(=O)N(C)[C@@H](C(C)C)C(=O)N1C [C18] (cyclo([MeBmt][Abu][Sar][NMeA]A[Sar]A[dA][NMeL][NMeL][NMeV]))

# Same assay, conditions: read-out: IC50 value of CsA binding to Cyclophilin A
row,IC50,Structure (SMILES)
1,< 2000 nM,C/C=C/C[C@@H](C)[C@@H](O)[C@H]1C(=O)N[C@@H](CC)C(=O)N(C)CC(=O)N(C)[C@H](C)C(=O)N[C@@H](CC(C)C)C(=O)N(C)[C@@H](C)C(=O)N[C@@H](C)C(=O)N[C@H](C)C(=O)N(C)[C@@H](CC(C)C)C(=O)N(C)[C@@H](CC(C)C)C(=O)N(C)[C@@H](C(C)C)C(=O)N1C [C11] (cyclo([MeBmt][Abu][Sar][dNMeA]L[NMeA]A[dA][NMeL][NMeL][NMeV]))
